Common to all, as to assay type: cell-based
Assay [1] has as its system Chikungunya virus (CHIKV). Kind of assay: microbe, parasite or virus in culture. Particulars: Chikungunya virus, Vero, 48 h, read-out: Percent viral inhibition CHKV.
The subject of the next assay is Marburg virus (MARV). Kind of assay: organism not typed. To be noted: Vero, 72 h, read-out: Percent viral inhibition MARV.
The subject of a further assay is dengue virus (DENV). The assay is described as follows: microbe, parasite or virus in culture. To be noted: Dengue virus, Vero, 120 h, read-out: Percent viral inhibition DENY.

This note sets out measurements from patent US20230011571A1, “SMALL MOLECULE FURIN INHIBITORS FOR TREATING INFECTIOUS DISEASES” (BP Asset V, Inc., priority 2019, published 2023).

The term inhibition denotes the share of the control response that was lost under treatment. As for `CN1CCN(c2ccc(Oc3cc(CN4CC[C@@H]5[C@H](CC4)[C@H]5C(=O)O)cc(-c4cc(Cl)cc(Cl)c4)n3)cn2)CC1` [Example 136, (1R,7S,8r)-4-((2-(3,5-dichlorophenyl)-6-((6-(4-methylpiperazin-1-yl)pyridin-3-yl)oxy)pyridin-4-yl)methyl)-4-azabicyclo[5.1.0]octane-8-carboxylic acid], the inhibition at 1 µM in assay [1] stood at 39.8%; with Marburg virus (MARV), 57.8%; with dengue virus (DENV), 18%.

In the case of `NS(=O)(=O)CC1CCN(Cc2cc(Oc3ccc(N4CCN(CCC(=O)O)CC4)nc3)nc(-c3cc(Cl)cc(Cl)c3)c2)CC1` [Example 38, 3-(4-(5-((6-(3,5-dichlorophenyl)-4-((4-(sulfamoylmethyl)piperidin-1-yl)methyl)pyridin-2-yl)oxy)pyridin-2-yl)piperazin-1-yl)propanoic acid], the inhibition at 1 µM came to 39.1% in assay [1], 50% in the assay with Marburg virus (MARV) and 14.2% with dengue virus (DENV).

In the case of `O=C(O)CC1CCN(Cc2cc(Oc3cnc(N4CCNCC4)nc3)nc(-c3cc(Cl)cc(Cl)c3)c2)CC1` [Example 206, 2-(1-((2-(3,5-dichlorophenyl)-6-((2-(piperazin-1-yl)pyrimidin-5-yl)oxy)pyridin-4-yl)methyl)piperidin-4-yl)acetic acid], the inhibition at 1 µM in assay [1] was found to be 34.4%; with Marburg virus (MARV) it was 50.8%; in the assay with dengue virus (DENV), 29.3%.

With `FC1CCN(Cc2cc(Oc3cnc(N4CCN5CCC4C5)nc3)nc(-c3cc(Cl)cc(Cl)c3)c2)CC1` (stereo not drawn) [Example 338, 4-(5-((6-(3,5-dichlorophenyl)-4-((4-fluoropiperidin-1-yl)methyl)pyridin-2-yl)oxy)pyrimidin-2-yl)-1,4-diazabicyclo[3.2.1]octane], the inhibition at 1 µM in assay [1] amounted to 19.3%; in the assay on Marburg virus (MARV) it was 12.2%; in the assay with dengue virus (DENV), 55.4%.

Regarding `CC(CCN1CCN(c2ncc(Oc3cc(CN4CC[C@@H]5[C@H](CC4)[C@H]5NS(C)(=O)=O)cc(-c4cc(Cl)cc(Cl)c4)n3)cn2)CC1)C(=O)O` (stereo partly drawn) [Example 81, 4-(4-(5-((6-(3,5-dichlorophenyl)-4-(((1R,7S,8r)-8-(methylsulfonamido)-4-azabicyclo[5.1.0]octan-4-yl)methyl)pyridin-2-yl)oxy)pyrimidin-2-yl)piperazin-1-yl)-2-methylbutanoic acid], the inhibition at 1 µM in assay [1] was determined as 26.1%; with Marburg virus (MARV), 73.7%; in the assay on dengue virus (DENV), 50.5%.

Take `COC(=O)NCC1CCN(Cc2cc(Oc3cnc(N4CCN(CCC(=O)O)CC4)nc3)nc(-c3cc(Cl)cc(Cl)c3)c2)CC1` [Example 62, 3-(4-(5-((6-(3,5-dichlorophenyl)-4-((4-(((methoxycarbonyl)amino)methyl)piperidin-1-yl)methyl)pyridin-2-yl)oxy)pyrimidin-2-yl)piperazin-1-yl)propanoic acid]: the inhibition at 1 µM in assay [1] was found to be 35.2%; with Marburg virus (MARV), 19.9%; with dengue virus (DENV), 19.1%.

Regarding `CC(=O)NCC1CCN(Cc2cc(Oc3ccc(N4CCN(C(C)CCS(C)(=O)=O)CC4)nc3)nc(-c3cc(Cl)cc(Cl)c3)c2)CC1` (stereo not drawn) [Example 16], the figures for the inhibition at 1 µM (in assay [1]; in the assay with Marburg virus (MARV); with dengue virus (DENV)) were 4.14%, 28.6% and 41.7%, respectively.

In the case of `CC(=O)NCC1CCN(Cc2cc(Oc3ccc(N4CC[N+](C)([O-])CC4)nc3)nc(-c3cc(Cl)cc(Cl)c3)c2)CC1` [Example 178, 4-(5-((4-((4-(acetamidomethyl)piperidin-1-yl)methyl)-6-(3,5-dichlorophenyl)pyridin-2-yl)oxy)pyridin-2-yl)-1-methylpiperazinel-oxide], the inhibition at 1 µM turned out to be 30.4% in assay [1], 57.7% in the assay with Marburg virus (MARV) and 71.1% in the assay with dengue virus (DENV).

As to `CN1C2CC1CN(c1ncc(Oc3cc(CN4CCC(CC(=O)O)CC4)cc(-c4cc(Cl)cc(Cl)c4)n3)cn1)C2` [Example 228, 2-(1-((2-(3,5-dichlorophenyl)-6-((2-(6-methyl-3,6-diazabicyclo[3.1.l]heptan-3-yl)pyrimidin-5-yl)oxy)pyridin-4-yl)methyl)piperidin-4-yl)acetic acid], the inhibition at 1 µM in assay [1] is 17.3%; with Marburg virus (MARV) it was 36.2%; with dengue virus (DENV), 31.9%.

Consider `CNCc1cc(Oc2ccc(N3CCC(N)CC3)nc2)nc(-c2cc(C)cc(Cl)c2)c1` [Example 108, 1-(5-((6-(3-chloro-5-methylphenyl)-4-((methylamino)methyl)pyridin-2-yl)oxy)pyridin-2-yl)piperidin-4-amine], for which the inhibition at 1 µM in assay [1] was 16.4%; in the assay with Marburg virus (MARV), 65.7%; with dengue virus (DENV), 0%.

For the molecule `CCN1CCCN(c2cnc(Oc3cc(CN4CCC(CC(=O)O)CC4)cc(-c4cc(Cl)cc(Cl)c4)n3)cn2)CC1` [Example 345, 2-(1-((2-(3,5-dichlorophenyl)-6-((5-(4-ethyl-1,4-diazepan-1-yl)pyrazin-2-yl)oxy)pyridin-4-yl)methyl)piperidin-4-yl)acetic acid], the figures for the inhibition at 1 µM (in assay [1]; with Marburg virus (MARV); with dengue virus (DENV)) were 22.1%, 57% and 44%, respectively.

As for `CN1CCN(c2ncc(Oc3cc(CN4CCC(OCC(=O)O)CC4)cc(-c4cc(Cl)cc(Cl)c4)n3)cn2)CC1` [Example 53, 2-((1-((2-(3,5-dichlorophenyl)-6-((2-(4-methylpiperazin-1-yl)pyrimidin-5-yl)oxy)pyridin-4-yl)methyl)piperidin-4-yl)oxy)acetic acid], the inhibition at 1 µM in assay [1] amounted to 30%; in the assay with Marburg virus (MARV), 53.5%; with dengue virus (DENV), 42.5%.

As to `CS(=O)(=O)CC1CCN(Cc2cc(Oc3ccc(N4CCN(CCC(=O)O)CC4)nc3)nc(-c3cc(Cl)cc(Cl)c3)c2)CC1` [Example 39, 3-(4-(5-((6-(3,5-dichlorophenyl)-4-((4-((methylsulfonyl)methyl)piperidin-1-yl)methyl)pyridin-2-yl)oxy)pyridin-2-yl)piperazin-1-yl)propanoic acid], the values for the inhibition at 1 µM (in assay [1]; in the assay with Marburg virus (MARV); in the assay with dengue virus (DENV)) were 23.7%, 60.1% and 54.7%, respectively.

Turning to `CC(=O)NCC1CCN(Cc2cc(Oc3cnc(N4CCN(CCO)CC4)nc3)nc(-c3cc(Cl)cc(Cl)c3)c2)CC1` [Example 93, N-((1-((2-(3,5-dichlorophenyl)-6-((2-(4-(2-hydroxyethyl)piperazin-1-yl)pyrimidin-5-yl)oxy)pyridin-4-yl)methyl)piperidin-4-yl)methyl)acetamide], the inhibition at 1 µM in assay [1] was 0%; with Marburg virus (MARV), 10.4%; in the assay with dengue virus (DENV), 56.7%.

With `O=C(O)CC1CCN(Cc2cc(Oc3cnc(N4CCN(CCC5(O)CC5)CC4)nc3)nc(-c3cc(Cl)cc(Cl)c3)c2)CC1` [Example 278, 2-(1-((2-(3,5-dichlorophenyl)-6-((2-(4-(2-(1-hydroxycyclopropyl)ethyl)piperazin-1-yl)pyrimidin-5-yl)oxy)pyridin-4-yl)methyl)piperidin-4-yl)acetic acid], the inhibition at 1 µM in assay [1] was determined as 45.6%; in the assay with Marburg virus (MARV), 81.7%; in the assay with dengue virus (DENV) it was 45.5%.

Regarding `O=C(O)CC1CCN(Cc2cc(Oc3ccc(N4CCNCC4)nc3)nc(-c3cc(Cl)cc(Cl)c3)c2)CC1` [Example 4, 2-(1-((2-(3,5-dichlorophenyl)-6-((6-(piperazin-1-yl)pyridin-3-yl)oxy)pyridin-4-yl)methyl)piperidin-4-yl) acetic acid], the inhibition at 1 µM amounted to 18.4% in assay [1], 70.8% in the assay on Marburg virus (MARV) and 16.6% in the assay on dengue virus (DENV).
